The text below walks through data of US20250235422A1 (BiomEdit, Inc., priority 2024, published 2025).

Entries after “also recorded” stand apart in the source; their conditions may differ. Like-named read-outs stand apart in the source and are kept apart here.

In one series the target is T1, AHR (Homo sapiens, UniProt P35869).
T1 sequence (P35869 11-848): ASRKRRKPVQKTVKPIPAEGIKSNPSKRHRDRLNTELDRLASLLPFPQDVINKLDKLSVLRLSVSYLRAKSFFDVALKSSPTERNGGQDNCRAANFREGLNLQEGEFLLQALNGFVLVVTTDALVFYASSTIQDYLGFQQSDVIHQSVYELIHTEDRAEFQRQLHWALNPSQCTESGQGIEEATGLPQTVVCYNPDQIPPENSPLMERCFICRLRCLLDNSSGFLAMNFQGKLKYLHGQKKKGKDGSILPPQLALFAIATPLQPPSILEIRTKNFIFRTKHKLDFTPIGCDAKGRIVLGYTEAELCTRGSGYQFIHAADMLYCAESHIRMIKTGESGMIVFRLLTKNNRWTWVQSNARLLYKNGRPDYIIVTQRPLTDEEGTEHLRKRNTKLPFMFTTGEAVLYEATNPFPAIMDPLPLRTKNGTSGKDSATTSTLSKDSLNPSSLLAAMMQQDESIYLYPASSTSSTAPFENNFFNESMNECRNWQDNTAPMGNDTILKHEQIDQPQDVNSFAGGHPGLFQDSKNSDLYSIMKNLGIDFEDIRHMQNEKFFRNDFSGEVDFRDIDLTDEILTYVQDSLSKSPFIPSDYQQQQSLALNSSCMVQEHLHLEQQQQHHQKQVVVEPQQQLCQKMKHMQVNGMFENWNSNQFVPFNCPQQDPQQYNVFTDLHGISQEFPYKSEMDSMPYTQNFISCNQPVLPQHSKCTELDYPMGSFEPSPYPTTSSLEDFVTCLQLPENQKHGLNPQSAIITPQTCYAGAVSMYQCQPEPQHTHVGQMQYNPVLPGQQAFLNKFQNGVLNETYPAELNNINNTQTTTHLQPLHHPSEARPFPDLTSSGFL
The note with it: cited from earlier work.

The nature of series [1]: Light stability and hydrophobicity observed during development. Type of series: physicochemical. The settings on record: light exposure.
The subject of another series is psoriasis and AD. The settings on record: humans; cited from earlier work.
Setting [2] is: AHR ligand activity, Table 1 reproduced from Barroso A et al., 2021.

Consider `CCCCC/C=C\C[C@@H](O)/C=C/C=C\C/C=C\CCCC(=O)O`, for which, at AHR (setting [2]), the Activity entry is reported as “Agonist”. In the case of `O=C(O)c1cc(O)c2ccccc2c1O` [1,4-dihydroxy-2-naphthoic acid (DHNA), 1,4-dihydroxy-2-naphthoic acid], the Activity entry at AHR (setting [2]) was “Agonist”. As to `Clc1cc2c(cc1Cl)Oc1cc(Cl)c(Cl)cc1O2` [2,3,7,8-Tetrachlorodibenzop-dioxin], the Activity entry on AHR (setting [2]) is given as “Agonist”.

In the case of `COC(=O)c1csc(C(=O)c2c[nH]c3ccccc23)n1` [2-(19H-indole-39-carbonyl)-thiazole-4-carboxylic acid methyl ester], the Activity entry on AHR (setting [2]) is “Agonist”.

For `c1ccc2c(Cc3[nH]c4ccccc4c3Cc3c[nH]c4ccccc34)c[nH]c2c1` [2-(Indol-3-ylmethyl)-3,39-diindolylmethane], the Activity result at AHR (setting [2]) is on record as “Agonist”.

For the molecule `c1ccc2c(Cc3c[nH]c4ccccc34)c[nH]c2c1` [3,3-diindolylmethane (DIM), 3,3-diindolylmethane], the Activity result at AHR (setting [2]) is listed as “Agonist”.

For the molecule `Cc1ccc2cc3c(ccc4ccccc43)c3c2c1CC3` [3-Methylcholanthrene], the Activity result at AHR (setting [2]) is “Agonist”. For `Cc1c[nH]c2ccccc12` [3-Methylindole (Skatole), 3-Methylindole], the Activity entry on AHR (setting [2]) was “Partial”.

Take `COc1ccc(-c2cc(=O)c3ccccc3o2)cc1OC` [3′4′-Dimethoxyflavone]: at AHR (setting [2]), the Activity result is “Partial”. Turning to `COc1cc(-c2cc(=O)c3ccccc3o2)ccc1[N+](=O)[O-]` [3′-methoxy-4′-nitroflavone (MNF), 3′-methoxy-4′-nitroflavone], the Activity entry on AHR (setting [2]) was “Antagonist”. For `N[C@@H](Cc1c[nH]c2ccc(O)cc12)C(=O)O` [5-hydroxytryptophan (5HTP), 5-hydroxytryptophan], the Activity entry at AHR (setting [2]) is reported as “Agonist”. Take `O=Cc1c2c(cc3c1=Nc1ccccc1-3)=Nc1ccccc1-2` [6-Formylindolo [3,2-b] carbazole (FICZ), 6-Formylindolo [3,2-b] carbazole]: at AHR (setting [2]), the Activity entry was “Agonist”.

As to `Cc1cc(Cl)cc2c1oc1cc(Cl)cc(Cl)c12` [6-Methyl-1,3,8-trichlorodibenzofuran], the Activity result on AHR (setting [2]) is on record as “Partial”. For the molecule `CC(C)c1cnn2c(N[C@@H]3CCc4[nH]c5ccccc5c4C3)nc(-c3cncc(F)c3)nc12` [AHR antagonist 5 (IK-775)], the Activity entry on AHR (setting [2]) was “Antagonist”. Turning to `O=C(O)[C@H]1O[C@@H](Oc2cc3oc(-c4ccccc4)cc(=O)c3c(O)c2O)[C@H](O)[C@@H](O)[C@@H]1O` [Baicalin], the Activity entry at AHR (setting [2]) is listed as “AntAgonist”. `O=c1cc(-c2ccccc2)oc2ccc3ccccc3c12` [Beta-naphthoflavone]: the Activity entry on AHR (setting [2]) is “Agonist”. As to `C=CC1=C(C)/C(=C/C2=NC(=C\c3[nH]c(/C=C4\NC(=O)C(C)=C4C=C)c(C)c3CCC(=O)O)/C(CCC(=O)O)=C2C)NC1=O` [Biliverdin], the Activity result at AHR (setting [2]) is “Agonist”. For `Cc1ccccc1N=Nc1ccc(NC(=O)c2ccnn2C)c(C)c1` [CH-223191], the Activity result at AHR (setting [2]) is given as “AntAgonist”. Turning to `Nc1c(C(=O)O)c2nc3c(C(=O)O)cccc3oc-2cc1=O` [Cinnabarinic acid (CA), Cinnabarinic acid], on AHR (setting [2]), the Activity entry is given as “Agonist”. For `CC=CC=CC=CC=CC=CC(=O)O` [DDPA, dodeca-2,4,6,8,10-pentaenoic acid], the photostability result in series [1] is listed as “photolabile; also recorded: photodecomposition leads to a loss of potency”. As to `O=C(O)Cc1ccccc1Nc1c(Cl)cccc1Cl` [Diclofenac], the Activity entry at AHR is recorded as “Agonist”. In the case of `N#CCc1c[nH]c2ccccc12` [Indole-3-acetonitrile (IAN), Indole-3-acetonitrile], at AHR (setting [2]), the Activity entry is given as “Agonist”. Take `O=Cc1c[nH]c2ccccc12` [Indole-3-aldehyde (I3CA), Indole-3-aldehyde]: the Activity result at AHR (setting [2]) is “Agonist”. `OCc1c[nH]c2ccccc12` [Indole-3-carbinol (I3C), Indole-3-carbinol]: the Activity entry on AHR (setting [2]) is reported as “Agonist”. Regarding `c1ccc2[nH]ccc2c1` [Indole], the Activity result on AHR was “Agonist”. As to `c1ccc2c(c1)N=c1cc3c(cc1-2)=Nc1ccccc1-3` [Indolo [3,2-b]carbazole (ICZ), Indolo [3,2-b]carbazole], at AHR (setting [2]), the Activity entry is “Agonist”.

Regarding `O=S(=O)(O)Oc1c[nH]c2ccccc12` [Indoxyl-3-sulfate (I3S), Indoxyl-3-sulfate], the Activity result on AHR (setting [2]) is listed as “Agonist”. As for `Nc1ccccc1C(=O)C[C@H](N)C(=O)O` [L-Kynurenine (Kyn), L-Kynurenine], the Activity result at AHR (setting [2]) is reported as “Agonist”.

For `CCCCC[C@H](O)/C=C/C=C\C=C\C=C\[C@@H](O)[C@@H](O)CCCC(=O)O` [Lipoxin A4], the Activity result on AHR (setting [2]) is “Agonist”.

On to `O=Cc1c(Cc2c[nH]c3ccccc23)[nH]c2ccccc12` [Malassezin], for which the Activity result on AHR (setting [2]) was “Agonist”. For `COc1cc2c(cc1O)C[C@@H]1NCCc3cc(OC)c(O)c-2c31` [Norisoboldine], the Activity result on AHR (setting [2]) is recorded as “Agonist”. Turning to `O=c1c(O)c(-c2ccc(O)c(O)c2)oc2cc(O)cc(O)c12` [Quercetin], the Activity entry on AHR (setting [2]) was “Partial”. In the case of `CC(C)n1cnc2c(NCCc3ccc(O)cc3)nc(-c3csc4ccccc34)nc21` [StemRegenin 1 (SR1), StemRegenin 1], the Activity entry on AHR (setting [2]) is “AntAgonist”. As to `CC1=C(CC(=O)O)c2cc(F)ccc2/C1=C\c1ccc([S+](C)[O-])cc1` (stereo not shown) [Sulindac], at AHR (setting [2]), the Activity result is “Agonist”.

On to `CC(C)c1c(O)cc(/C=C/c2ccccc2)cc1O` [Tapinarof, 3,5-dihydroxy-4-isopropyl-trans-stilbene], for which the Activity entry at AHR (setting [2]) is given as “Agonist”. The “effectiveness for treatment of psoriasis and AD” value in the series on psoriasis and AD is “effective”. Take `NCCc1c[nH]c2ccccc12` [Tryptamine]: on AHR (setting [2]), the Activity entry was “Agonist”.

For `O=C1c2ccccc2-n2c1nc1ccccc1c2=O` [Tryptanthrin], the Activity result at AHR (setting [2]) was “Agonist”. `FC(F)(F)c1ccc(Nc2nccc(-c3cccc(Cl)c3)n2)cc1` [VAF347]: at AHR (setting [2]), the Activity entry was “Agonist”. Consider `O=C(O)c1cc(O)c2cccc(O)c2n1` [Xanthurenic acid], for which, at AHR (setting [2]), the Activity entry is reported as “Agonist”.
